Laboratory results reported in patent US20050153872A1, “Methods and compositions for the treatment of infection” (priority 2004, published 2005).
Converted amounts (≈) assume the structure as drawn. Where two headings read alike, the source gives them in different places.

What was measured:
[1] = tested on: Staphylococcus aureus MSSA strain (88); assay: In vitro antibacterial activity (MIC), clinical isolates; type: cell-based; details: Staphylococcus aureus, 88 MSSA clinical isolates
Procedure: (§1) The following experiments were performed by Lab. of Pharmacology, National Sichuan antibiotic industril institute, Chengdu, Sichuan.
(§2) The following agents were used to test the in vitro activity of Ph-SA:
(§3) All the bacterial strains used in the experiments were clinical isolates collected from Sichuan and Beijing in 2002 and identified by West China Hospital, Sichuan University and Chongqing University of Medical Sciences with API system. The following strains were used in the experiments detailed below: Staphylococcus aureus 168 strains (MRSA 80 strains and MSSA 88 strains) Staphylococcus epidermidis 46 strains (MRSE 25 strains and MSSE 21 strains), Enterococcus 20 strains, and Acenetobactor 20 strains. Staphylococcus aureus ATCC25923, 29213 and BAA-42 were used as control strains. Bacterial strains were contacted with one of the above described compounds and MIC50, MIC90 and MICScope were determined.

[2] = tested on: Staphylococcus epidermidis MRSE strain (25); assay: as above; type: cell-based; details: Staphylococcus epidermidis, MRSE
Procedure: as §1, §2, §3

[3] = tested on: Staphylococcus epidermidis MSSE strain (21); assay: as above; type: cell-based; details: Staphylococcus epidermidis, 21 MSSE clinical isolates
Procedure: as §1, §2, §3

Acenetobactor (20) = assay: as above; type: cell-based
Procedure: as §1, §2, §3

[4] = tested on: Staphylococcus aureus MRSA strain (80); assay: as above; type: cell-based; details: Staphylococcus aureus, MRSA
Procedure: as §1, §2, §3

Enterococcus (20) = assay: as above; type: cell-based; details: 20 Enterococcus clinical isolates
Procedure: as §1, §2, §3

[5] = tested on: Staphylococcus aureus ATCC 29213; assay: MIC against challenge strain (Table 3); type: cell-based; details: ATCC29213, read-out: MIC
Escherichia coli 02-1-65 [6] = assay: MIC against challenge strain (Table 3); type: cell-based; details: 02165, read-out: MIC
ATCC 700802 VRE cells [7] = assay: Electron micrographs of bactericidal effects of Ph-EF; type: cell-based, Enterococcus; details: Ph-EF 10 ug/ml 0.5 and 2 hr; Ph-SA 10 ug/ml 2 hr; vancomycin 20 ug/ml 2 hr
Procedure: Electron Microraphs of Bactericidal Effects of Ph-EF Against ATCC 700802 VRE Cells (1% Phosphotungstic Acid, 15.000×).
Bactericidal effects of ph-EF were tested and monitored by electron microscopy. FIG. 16 depicts electron micrographs of (a) untreated cells; (b) and (c) cells treated with Ph-EF (10 ug/ml) for 0.5 hr; (d) untreated cells for 2 hr; (e) cells treated by Ph-SA (10 ug/ml) for 2 hr; (f) cells treated with vancomycin (20 ug/ml) for 2 hr; (g) and (h) cells treated with Ph-EF (10 ug/ml) for 2 hrs.

[8] = tested on: Staphylococcus aureus MRSA 02-18; assay: In vivo protection of infected mice; design: species or system Kungming mice; details: Staphylococcus aureus, MRSA
Procedure: (§4) The following experiments were performed by Pharmacology Lab, National Sichuan antibiotic industril institute, Chengdu, Sichuan.
(§5) The agents described above were diluted with sterilized water to final concentrations of 10 mg/L, 5 mg/Land 2.5 mg/L.
(§6) Staphylococcus aureus ATCC BAA-42(MRSA) and enterococcus faecalis ATCC 700802 were used as control strains.
(§7) 170 mice (Kungming mice: 18˜22 g, 85 males and 85 females) were randomly divided into four groups and injected with a fatal dosage of staphylococci, enterococcus and E. coli intraperitoneally. […] Mice were inspected every 24 hours for 7-14 days. Dead mice were counted as positive results. The results are depicted in Table 3 and FIGS. 4 and 5A-B.

[9] = tested on: Enterococcus faecalis ATCC 700802; assay: In vivo protection of infected mice; design: species or system Kungming mice; details: Enterococcus faecalis
Procedure: as §4, §5, §6, §7

[10] = tested on: Staphylococcus aureus MRSA BAA-42; assay: In vivo protection of infected mice; design: species or system Kungming mice; details: Staphylococcus aureus
Procedure: as §4, §5, §6, §7

Escherichia coli 02-1-65 [11] = assay: In vivo protection of infected mice; design: species or system Kungming mice; details: i.p. infection 3.3 × 10^5 cfu/ml, read-out: ED50
Procedure: as §4
(§8) The agents described above were diluted with sterilized water to final concentrations of 10 mg/L, 5 mg/Land 2.5 mg/L. […]
as §7

[12] = tested on: Staphylococcus aureus ATCC 29213; assay: In vivo protection of infected mice; design: species or system Kungming mice; details: Staphylococcus aureus, i.p. infection 3.6 × 10^5 cfu/ml, read-out: ED50
Procedure: as §4, §8, §7

[13] = tested on: Vancomycin-resistant Enterococcus ATCC 700802; details: 10 ug/ml; ATCC 700802
[14] = tested on: Staphylococcus aureus MRSA 02-18; assay: microbe, parasite or virus in culture; type: cell-based; details: Staphylococcus aureus MRSA 02-18; read-out: MIC
[15] = tested on: Staphylococcus aureus MRSA BAA-42; assay: microbe, parasite or virus in culture; type: cell-based; details: Staphylococcus aureus MRSA BAA-42; read-out: MIC
ATCC 700802 VRE cells [16] = assay: Ph-EF protection of ATCC 700802 infected mice; type: in vivo; details: 5 animals
Procedure: To assess in vivo effects of Ph-EF, mice were injected with a fatal dosage of ATCC 700802 VRE cells intraperitoneally. […] Mice were inspected every 24 hours for 7-14 days. Dead mice would be counted as positive results.

[17] = tested on: Enterococcus faecalis ATCC 700802; assay: microbe, parasite or virus in culture; type: cell-based; details: ATCC700802; Enterococcus faecalis ATCC 700802; read-out: MIC

## CN[C@H](CC(C)C)C(=O)N[C@H]1C(=O)N[C@@H](CC(N)=O)C(=O)N[C@H]2C(=O)N[C@H]3C(=O)N[C@H](C(=O)N[C@H](C(=O)O)c4cc(O)cc(O)c4-c4cc3ccc4O)[C@H](O)c3ccc(c(Cl)c3)Oc3cc2cc(c3O[C@@H]2O[C@H](CO)[C@@H](O)[C@H](O)[C@H]2O[C@H]2C[C@](C)(N)[C@H](O)[C@H](C)O2)Oc2ccc(cc2Cl)[C@H]1O [Vancomycin]
[1]; read-out: MIC50
  MIC50: 0.5 µg/mL (≈ 0.345 µM)
[1]; read-out: MIC90
  MIC90: 1 µg/mL (≈ 0.69 µM)
[1]; read-out: MIC Scope
  MIC: 0.03 to 1 µg/mL (≈ 0.0207 to 0.69 µM)
[2]
  MIC50: 0.5 µg/mL (≈ 0.345 µM)
  MIC90: 1 µg/mL (≈ 0.69 µM)
[2]; read-out: MIC Scope
  MIC: 0.25 to 2 µg/mL (≈ 0.173 to 1.38 µM)
[3]
  MIC: 0.06 to 0.5 µg/mL (≈ 0.0414 to 0.345 µM)
[3]; read-out: MIC50
  MIC50: 0.5 µg/mL (≈ 0.345 µM)
[3]; read-out: MIC90
  MIC90: 0.5 µg/mL (≈ 0.345 µM)
Acenetobactor (20)
  MIC50: > 128 µg/mL
  MIC90: > 128 µg/mL
[4]
  MIC50: 0.25 µg/mL (≈ 0.173 µM)
  MIC90: 1 µg/mL (≈ 0.69 µM)
[4]; read-out: MIC Scope
  MIC: 0.004 to 2 µg/mL (≈ 0.00276 to 1.38 µM)
Enterococcus (20)
  MIC: 0.5 to 50 µg/mL (≈ 0.345 to 34.5 µM)
Enterococcus (20); read-out: MIC50
  MIC50: 1 µg/mL (≈ 0.69 µM)
Enterococcus (20); read-out: MIC90
  MIC90: 2 µg/mL (≈ 1.38 µM)
[5]
  MIC: 0.5 µg/mL (≈ 0.345 µM)
Escherichia coli 02-1-65 [6]
  MIC: 128 µg/mL (≈ 88.3 µM)
ATCC 700802 VRE cells [7]
  morphological alteration in VRE cells (electron micrographs): no morphological alteration
[8]
  ED50: 2.39 mg/kg
[8]; 1 h
  ED50: 2.27 mg/kg
[9]; ATCC700802
  ED50: 2.64 mg/kg
[9]; ATCC700802, 1 h
  ED50: 3.17 mg/kg
[10]
  ED50: 3.53 mg/kg
[10]; 1 h
  ED50: 3.64 mg/kg
Escherichia coli 02-1-65 [11]; Escherichia coli, 02165, 2nd Time (value in parentheses), i.v. treatment
  ED50: > 30.8 mg/kg
Escherichia coli 02-1-65 [11]; Escherichia coli, 02165, 1 h, 1st Time, i.v. treatment after one hour
  ED50: > 30.8 mg/kg
[12]; ATCC29213, 2nd Time (value in parentheses), i.v. treatment
  ED50: 2.09 mg/kg
[12]; ATCC29213, 1 h, 1st Time, i.v. treatment after one hour
  ED50: 2.32 mg/kg
[13]
  inhibition of VRE cell growth: only partially inhibited VRE cell growth
[14]
  MIC: 0.06 µg/mL (≈ 0.0414 µM)
[15]
  MIC: 0.06 µg/mL (≈ 0.0414 µM)
ATCC 700802 VRE cells [16]; 5 mg/kg intravenously
  Death distribution in hours 24 h: 3
  Death distribution in hours 48 h: 2
  Death distribution in hours 72 h: 1
  Death distribution in hours 96 h: 0
  Death distribution in hours 120 h: 0
  Death distribution in hours 144 h: 0
  Death distribution in hours 168 h: 0
  Number of Death: 3
ATCC 700802 VRE cells [16]; 10 mg/kg intravenously
  Death distribution in hours 24 h: 1
  Death distribution in hours 48 h: 1
  Death distribution in hours 72 h: 0
  Death distribution in hours 96 h: 0
  Death distribution in hours 120 h: 0
  Death distribution in hours 144 h: 0
  Death distribution in hours 168 h: 0
  Number of Death: 1
[17]
  MIC: 16 µg/mL (≈ 11 µM)
